Experimental data reported in PubChem BioAssay AID256 (DTP/NCI, 2004).
Inconclusive results and toxic doses are left out.

Test system: CD2F1 mice, L1210 leukemia ip, survival T/C
Test: NCI In Vivo Anticancer Drug Screen. Data for tumor model L1210 Leukemia (intraperitoneal) in CD2F1 (CDF1) mice
Details: endpoint: mean survival time, higher = longer survival
Outline: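 Transplantable tumor in mice; compound-treated vs vehicle-treated groups. Read-out = treated/control ratio of the measured endpoint.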

[1] = dose: 100.0 mg/kg/injection, schedule: Q01DX001 (ip), vehicle: saline
[2] = dose: 200.0 mg/kg/injection, schedule: Q01DX001 (ip), vehicle: saline
[3] = dose: 400.0 mg/kg/injection, schedule: Q01DX001 (ip), vehicle: saline
[4] = dose: 100.0 mg/kg/injection, schedule: Q01DX009 (ip), vehicle: saline with Tween-80
[5] = dose: 200.0 mg/kg/injection, schedule: Q01DX009 (ip), vehicle: saline with Tween-80
[6] = dose: 400.0 mg/kg/injection, schedule: Q01DX009 (ip), vehicle: saline with Tween-80
[7] = dose: 100.0 mg/kg/injection, schedule: Q04DX003 (ip), vehicle: saline with Tween-80
[8] = dose: 200.0 mg/kg/injection, schedule: Q04DX003 (ip), vehicle: saline with Tween-80
[9] = dose: 100.0 mg/kg/injection, schedule: Q04DX002 (ip), vehicle: saline with Tween-80
[10] = dose: 200.0 mg/kg/injection, schedule: Q04DX002 (ip), vehicle: saline with Tween-80
[11] = dose: 400.0 mg/kg/injection, schedule: Q04DX002 (ip), vehicle: saline with Tween-80
[12] = dose: 25.0 mg/kg/injection, schedule: Q04DX003 (ip), vehicle: saline with Tween-80
[13] = dose: 50.0 mg/kg/injection, schedule: Q04DX003 (ip), vehicle: saline with Tween-80

For CSc1nc(Cl)cc(Sc2nc(N)nc3nc[nH]c23)n1, the T/C (dose: 18.75 mg/kg/injection, schedule: Q01DX009 (ip), vehicle: Klucel (hydroxypropylcellulose) (HPC)) was 173 % of control, the T/C (dose: 37.5 mg/kg/injection, schedule: Q01DX009 (ip), vehicle: Klucel (hydroxypropylcellulose) (HPC)) was 175 % of control and the T/C (dose: 150.0 mg/kg/injection, schedule: Q01DX009 (ip), vehicle: Klucel (hydroxypropylcellulose) (HPC)) was 97 % of control.
For C[n+]1ccc(Cc2ccccc2)cc1, the T/C (dose: 12.5 mg/kg/injection, schedule: Q04DX002 (ip), vehicle: saline) was 104 % of control, the T/C (dose: 25.0 mg/kg/injection, schedule: Q04DX002 (ip), vehicle: saline) was 96 % of control and the T/C (dose: 50.0 mg/kg/injection, schedule: Q04DX002 (ip), vehicle: saline) was 102 % of control.
CC(=O)N(CC(C)C)N=O was tested, and the T/C [1] was 95 % of control, the T/C (dose: 100.0 mg/kg/injection, schedule: Q04DX003 (ip), vehicle: saline) was 102 % of control and the T/C [2] was 97 % of control. The T/C (dose: 200.0 mg/kg/injection, schedule: Q04DX003 (ip), vehicle: saline) was 97 % of control, the T/C [3] was 89 % of control and the T/C (dose: 400.0 mg/kg/injection, schedule: Q04DX003 (ip), vehicle: saline) was 94 % of control.
For Cc1cc(Cl)c2nc(-c3ccccc3)ccc2c1, the T/C [4] was 103 % of control, the T/C [5] was 101 % of control and the T/C [6] was 97 % of control.
In the case of COc1ccc(NC(=O)Nc2ccc(Br)cc2)cc1, the T/C [4] was 88 % of control, the T/C [7] was 96 % of control and the T/C [5] was 89 % of control. For the same compound, the T/C [8] was 98 % of control and the T/C [6] was 89 % of control.
With CCCCCCC[CH2][Sn]1([CH2]CCCCCCC)[O]OC(c2ccccc2)[O]1 (stereo unspecified) the T/C (dose: 50.0 mg/kg/injection, schedule: Q04DX002 (ip), vehicle: saline with Tween-80) was 92 % of control.
COc1ccc(C(=O)CN(C)S(=O)(=O)c2ccc(C)cc2)cc1 was tested, and the T/C [9] was 97 % of control, the T/C [10] was 97 % of control and the T/C [11] was 94 % of control.
For CC(C)(O)C#CC#CC(C)(C)O, the T/C (dose: 100.0 mg/kg/injection, schedule: Q01DX001 (ip), vehicle: saline with Tween-80) was 102 % of control and the T/C (dose: 200.0 mg/kg/injection, schedule: Q01DX001 (ip), vehicle: saline with Tween-80) was 96 % of control.
With CC(C)CC(NC(c1ccccc1)(c1ccccc1)c1ccccc1)C(=O)O (stereo unspecified) the T/C [1] was 102 % of control, the T/C [2] was 95 % of control and the T/C [3] was 102 % of control.
For O=C(O)C1CCc2c(cnn2-c2ccc(Cl)cc2)C1 (stereo unspecified), the T/C [9] was 96 % of control, the T/C [10] was 103 % of control and the T/C [11] was 103 % of control.
COC(=O)N1c2ccccc2C=CC1C#N (stereo unspecified) was tested, and the T/C (dose: 6.25 mg/kg/injection, schedule: Q01DX009 (ip), vehicle: saline with Tween-80) was 89 % of control, the T/C (dose: 12.5 mg/kg/injection, schedule: Q01DX009 (ip), vehicle: saline with Tween-80) was 103 % of control and the T/C (dose: 12.5 mg/kg/injection, schedule: Q04DX003 (ip), vehicle: saline with Tween-80) was 97 % of control. The T/C (dose: 25.0 mg/kg/injection, schedule: Q01DX009 (ip), vehicle: saline with Tween-80) was 95 % of control, the T/C [12] was 97 % of control and the T/C (dose: 50.0 mg/kg/injection, schedule: Q01DX009 (ip), vehicle: saline with Tween-80) was 98 % of control. For the same compound, the T/C [13] was 97 % of control, the T/C [4] was 101 % of control and the T/C [7] was 98 % of control. For the same compound, the T/C [8] was 95 % of control.
In the case of NC(=S)N/N=C\c1cccs1, the T/C [7] was 97 % of control, the T/C [8] was 100 % of control and the T/C (dose: 400.0 mg/kg/injection, schedule: Q04DX003 (ip), vehicle: saline with Tween-80) was 96 % of control.
CN(C)Cc1cc(C(C)(C)C)c(O)c(C(C)(C)C)c1 was tested, and the T/C [12] was 112 % of control, the T/C [13] was 108 % of control and the T/C [7] was 100 % of control.
In the case of CNC(=O)OCc1c(COC(=O)NC)c(C)n(-c2ccccc2)c1C, the T/C (dose: 6.25 mg/kg/injection, schedule: Q01DX009 (ip), vehicle: Klucel (hydroxypropylcellulose) (HPC)) was 109 % of control, the T/C (dose: 12.5 mg/kg/injection, schedule: Q01DX009 (ip), vehicle: Klucel (hydroxypropylcellulose) (HPC)) was 106 % of control and the T/C (dose: 25.0 mg/kg/injection, schedule: Q01DX009 (ip), vehicle: Klucel (hydroxypropylcellulose) (HPC)) was 104 % of control.
